The text below walks through data of patent publication US20140154666A1, “Erythrocyte Preservation Method” (Trustees of Dartmouth College, priority 2012, published 2014).

The test system of experiment [1] is erythrocyte concentrate. Briefly: ATP content of erythrocyte concentrate after 42 days of refrigerated storage. The note with it: FIG. 2, samples 2032 and 2086, 99.9% by volume xenon gas, treated vs not treated. The class given is cell-based. From the text:
(§1) Referring now to FIGS. 1-2, test results of two different erythrocyte concentrates are illustrated. The first erythrocyte concentrate is identified by, number 2032 and the second erythrocyte concentrate is identified by number 2086. Each of the samples was divided into four different containers. […] Also, for each sample, two of the containers included a gas system of 99.9% by volume xenon gas. The graphs indicate which container included or were absent xenon gas and/or DEHP plasticiser. The testing protocol for the containers was as follows:
(§2) For Containers That Are Absent Xe Gas:
(§3) a. Place non-Xe units flat on a rotator for 3.5 hours.
(§4) b. Place non-Xe units in blood bank refrigerator at the same time as the Xe units.
(§5) For Containers That Include Xe Gas:
(§6) a. Place Xe units flat in a pretested hyperatmic chamber.
(§7) b. Evacuate the chamber with vacuum to remove oxygen from the Xe units.
(§8) c. Pressurize the chamber with Xe gas at 4 atm.
(§9) d. Vent the chamber of Xe gas.
(§10) e. Pressurize the chamber with Xe gas at 4 atm.
(§11) f Vent the chamber of Xe gas.
(§12) g. Pressurize the chamber with Xe gas at 4 atm.
(§13) h. Vent the chamber of Xe gas.
(§14) i. Pressurize the chamber with Xe gas at 4 atm.
(§15) j. Place the pressurized Xe unit on an agitator for 3.5 h.
k. Place the pressurized Xe unit in a blood bank refrigerator at the same time as the non-Xe units. […]

Experiment [2] relates to erythrocyte concentrate. The experiment can be described thus: Hemolysis of erythrocyte concentrate after 42 days of refrigerated storage. The class given is cell-based. The note with it: FIG. 1.
From the text: as §1, §2, §3, §4, §5, §6, §7, §8, §9, §10, §11, §12, §13, §14, §15
k. Place the pressurized Xe unit in a blood bank refrigerator at the same time as the non-Xe units.
While the Xe units and non-Xe units are in the blood bank refrigerator, the Xe units were periodically checked over a 42 day period to ensure that the pressure in the Xe units exceeded 1 atm. After 42 days, all of the units were removed from the blood bank refrigerator. After the units were removed from the blood bank refrigerator, the following procedures where conducted on the units:
1. Immediately place the pressurized Xe units and non-Xe units on a platelet to and-fro horizontal agitator for 10 minutes.
2. Depressurize all of the units by opening a value on the container.
3. Place all units on a bench top and hold for 3 hours.
4. Following the 3 hour hold period, test the samples for percentage of hemolysis and the ATP content.

Experiment [3] has as its system erythrocyte concentrate. As to conditions: presence of DEHP plasticizer in the storage container; cited from earlier work.

In the case of `[Xe]` [xenon gas, Xenon], in the experiment on erythrocyte concentrate [1], the “ATP content in the erythrocyte concentrate” value is reported as “higher ATP content”. Also, the amounts of hemolysis entry in the experiment with erythrocyte concentrate [2] (42 days, xenon gas with no DEHP plasticiser vs container with DEHP plasticiser and no xenon gas) is “lower amounts of hemolysis”. The percent of hemolysis result in the experiment with erythrocyte concentrate [2] (samples 2032 and 2086, 99.9% by volume xenon gas at 4 atm, 42 days in blood bank refrigerator, treated vs not treated with xenon gas) is given as “significantly less”.
Consider `CCCCC(CC)COC(=O)c1ccccc1C(=O)OCC(CC)CCCC` (stereo not drawn) [DEHP plasticiser, his (2-ethylhexyl) phthalate], for which the hemolysis result with erythrocyte concentrate [2] (42 days, DEHP plasticiser added to a container that included xenon gas) is recorded as “further reduction of hemolysis”. Moreover, the amounts of hemolysis result with erythrocyte concentrate [2] (42 days, containers that include DEHP plasticiser vs containers without) is reported as “Reduced amounts of hemolysis”. For the same molecule, in the experiment with erythrocyte concentrate [3], the “number of erythrocytes that lysed during the storage of the erythrocyte concentrate” value was “reduces the number of erythrocytes that lysed”.
